Where two headings read alike, the source gives them in different places.
Experiments:
[1] = biological target: T1, TRPC5 Q573A (Homo sapiens, UniProt Q9UL62, Q573A); assay: Inhibition of TRPC5 mutant Q573A; assay type: cell-based; settings: TRPC5 Q573A vs wild type
T1 construct: full-length wild-type or mutant TRPC5 was cloned into a pcDNA3.1 vector; expressed in transfected cells; host or cells: HEK293T

[2] = biological target: TRPC6 (Homo sapiens, UniProt Q9Y210); assay: Patch-clamp selectivity, TRPC6; assay type: cell-based; settings: 1 μmol/L
Chain of TRPC6 (Q9Y210 whole entry, species assumed): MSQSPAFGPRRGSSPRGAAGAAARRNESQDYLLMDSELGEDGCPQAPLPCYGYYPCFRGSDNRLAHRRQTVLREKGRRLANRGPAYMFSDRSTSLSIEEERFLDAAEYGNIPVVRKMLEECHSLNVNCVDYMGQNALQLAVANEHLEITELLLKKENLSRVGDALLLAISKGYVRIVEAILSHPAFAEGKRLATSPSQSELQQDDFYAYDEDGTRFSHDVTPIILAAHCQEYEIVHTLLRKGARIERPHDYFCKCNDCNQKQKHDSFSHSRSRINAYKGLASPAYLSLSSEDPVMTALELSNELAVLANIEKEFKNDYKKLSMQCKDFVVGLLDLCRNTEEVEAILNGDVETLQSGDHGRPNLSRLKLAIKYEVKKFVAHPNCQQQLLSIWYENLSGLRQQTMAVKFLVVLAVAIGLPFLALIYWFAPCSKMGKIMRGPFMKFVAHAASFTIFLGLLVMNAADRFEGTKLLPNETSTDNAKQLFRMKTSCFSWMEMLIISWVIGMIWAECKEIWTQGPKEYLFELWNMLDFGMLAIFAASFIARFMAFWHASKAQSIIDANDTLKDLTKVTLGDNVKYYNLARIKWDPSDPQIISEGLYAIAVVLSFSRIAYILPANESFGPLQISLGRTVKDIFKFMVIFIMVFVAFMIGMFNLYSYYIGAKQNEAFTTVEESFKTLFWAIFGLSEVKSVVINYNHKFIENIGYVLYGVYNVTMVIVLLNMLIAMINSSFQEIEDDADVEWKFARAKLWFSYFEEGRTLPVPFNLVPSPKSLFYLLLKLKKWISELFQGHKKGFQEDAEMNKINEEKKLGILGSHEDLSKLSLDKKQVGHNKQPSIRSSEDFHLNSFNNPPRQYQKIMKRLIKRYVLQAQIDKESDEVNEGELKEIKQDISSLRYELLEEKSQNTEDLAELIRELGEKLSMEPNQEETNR

[3] = biological target: T2, 5-HTT (Homo sapiens, UniProt P31645); assay: SafetyOne44 panel: 5-HTT; assay type: cell-based; settings: 10 μmol/L, read-out: Antagonist JDIC-127 @10 μmol/L
T2 construct: purchased ICE Bioscience ICESTP™ SafetyOne44 Panel
T2 sequence (P31645 whole entry): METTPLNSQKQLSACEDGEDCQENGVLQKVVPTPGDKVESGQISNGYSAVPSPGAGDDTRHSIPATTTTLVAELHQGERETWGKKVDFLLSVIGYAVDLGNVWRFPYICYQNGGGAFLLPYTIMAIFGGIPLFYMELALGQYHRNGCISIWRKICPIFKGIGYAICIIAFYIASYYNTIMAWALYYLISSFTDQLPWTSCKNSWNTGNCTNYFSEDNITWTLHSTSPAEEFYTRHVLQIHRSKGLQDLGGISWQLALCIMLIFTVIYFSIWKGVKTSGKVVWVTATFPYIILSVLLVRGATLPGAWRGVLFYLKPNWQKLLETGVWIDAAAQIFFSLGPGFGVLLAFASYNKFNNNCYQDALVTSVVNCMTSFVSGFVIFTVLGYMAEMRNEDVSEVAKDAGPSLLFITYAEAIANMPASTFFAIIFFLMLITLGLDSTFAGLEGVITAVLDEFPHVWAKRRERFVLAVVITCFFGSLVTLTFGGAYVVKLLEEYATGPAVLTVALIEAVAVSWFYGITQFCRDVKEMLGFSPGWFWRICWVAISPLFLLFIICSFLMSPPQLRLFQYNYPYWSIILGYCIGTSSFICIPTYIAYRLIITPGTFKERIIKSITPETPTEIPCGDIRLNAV

[4] = biological target: T3, TRPC5 (Homo sapiens, UniProt Q9UL62); assay: Whole-cell patch-clamp, TRPC5, Ca2+-activated condition; assay type: cell-based; settings: read-out: IC50, TRPC5, endogenous Ca2+-evoked activation
T3 sequence (Q9UL62 1-973): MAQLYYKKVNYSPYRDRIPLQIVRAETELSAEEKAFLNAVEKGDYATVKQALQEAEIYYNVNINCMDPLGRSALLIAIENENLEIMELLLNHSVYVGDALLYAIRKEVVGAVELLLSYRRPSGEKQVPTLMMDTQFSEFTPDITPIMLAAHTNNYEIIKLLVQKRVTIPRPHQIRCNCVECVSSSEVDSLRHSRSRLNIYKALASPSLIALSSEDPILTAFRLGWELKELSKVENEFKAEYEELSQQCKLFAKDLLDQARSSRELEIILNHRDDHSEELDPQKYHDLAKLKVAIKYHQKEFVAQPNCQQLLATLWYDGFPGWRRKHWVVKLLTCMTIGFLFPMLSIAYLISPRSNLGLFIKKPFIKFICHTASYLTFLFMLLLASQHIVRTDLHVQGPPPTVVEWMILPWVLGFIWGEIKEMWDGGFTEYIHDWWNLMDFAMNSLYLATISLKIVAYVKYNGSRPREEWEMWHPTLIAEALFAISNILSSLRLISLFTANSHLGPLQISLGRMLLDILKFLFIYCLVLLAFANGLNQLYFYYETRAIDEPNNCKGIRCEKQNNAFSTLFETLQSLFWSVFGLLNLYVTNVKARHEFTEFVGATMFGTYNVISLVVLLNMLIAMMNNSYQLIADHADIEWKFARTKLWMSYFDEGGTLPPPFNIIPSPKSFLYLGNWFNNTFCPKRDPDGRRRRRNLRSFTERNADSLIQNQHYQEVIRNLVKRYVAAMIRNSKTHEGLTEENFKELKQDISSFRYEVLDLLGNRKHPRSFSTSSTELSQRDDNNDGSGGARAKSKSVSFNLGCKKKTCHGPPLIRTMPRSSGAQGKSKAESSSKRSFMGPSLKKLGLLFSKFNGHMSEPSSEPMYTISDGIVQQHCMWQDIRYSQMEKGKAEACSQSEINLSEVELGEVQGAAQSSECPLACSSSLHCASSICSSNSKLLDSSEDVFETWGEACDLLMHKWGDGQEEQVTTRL

[5] = biological target: T4, 5-HT1A (Homo sapiens, UniProt P08908); assay: cell-based; assay type: cell-based
T4 construct: purchased ICE Bioscience ICESTP SafetyOne44 Panel
T4 sequence (P08908 whole entry): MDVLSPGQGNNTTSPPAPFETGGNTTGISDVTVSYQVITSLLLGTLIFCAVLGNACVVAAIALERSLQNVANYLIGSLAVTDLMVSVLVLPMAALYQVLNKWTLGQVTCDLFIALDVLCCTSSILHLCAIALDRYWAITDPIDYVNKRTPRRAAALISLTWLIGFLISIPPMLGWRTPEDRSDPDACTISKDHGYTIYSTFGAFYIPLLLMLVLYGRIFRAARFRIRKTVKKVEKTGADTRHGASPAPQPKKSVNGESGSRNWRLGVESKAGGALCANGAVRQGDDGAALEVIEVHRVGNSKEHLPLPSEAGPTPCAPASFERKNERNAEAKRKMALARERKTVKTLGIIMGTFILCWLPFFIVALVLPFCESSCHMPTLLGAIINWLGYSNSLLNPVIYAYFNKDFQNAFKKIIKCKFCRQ

[6] = biological target: hERG (Homo sapiens, UniProt Q12809); settings: 10 μmol/L, patch-clamp
[7] = biological target: T5, M2 (Homo sapiens, UniProt P08172); assay: cell-based; assay type: cell-based
T5 construct: purchased ICE Bioscience ICESTP SafetyOne44 Panel
T5 sequence (P08172 whole entry): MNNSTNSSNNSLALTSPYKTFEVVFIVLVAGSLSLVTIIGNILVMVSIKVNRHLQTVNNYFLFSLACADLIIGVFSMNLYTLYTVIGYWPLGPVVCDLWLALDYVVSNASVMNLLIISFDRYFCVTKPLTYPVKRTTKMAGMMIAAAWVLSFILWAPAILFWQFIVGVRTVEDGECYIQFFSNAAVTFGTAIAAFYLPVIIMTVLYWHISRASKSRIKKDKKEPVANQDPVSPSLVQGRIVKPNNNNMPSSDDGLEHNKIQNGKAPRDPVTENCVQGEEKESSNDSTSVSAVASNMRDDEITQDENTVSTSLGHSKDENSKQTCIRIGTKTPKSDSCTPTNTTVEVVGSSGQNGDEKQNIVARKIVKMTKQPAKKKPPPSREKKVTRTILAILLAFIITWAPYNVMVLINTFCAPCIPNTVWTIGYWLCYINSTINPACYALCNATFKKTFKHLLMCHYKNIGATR

[8] = biological target: T6, 5-HT2B (Homo sapiens, UniProt P41595); assay: cell-based; assay type: cell-based; settings: 5-HT2B, 10 μmol/L
T6 construct: purchased ICE Bioscience ICESTP SafetyOne44 Panel
T6 sequence (P41595 whole entry): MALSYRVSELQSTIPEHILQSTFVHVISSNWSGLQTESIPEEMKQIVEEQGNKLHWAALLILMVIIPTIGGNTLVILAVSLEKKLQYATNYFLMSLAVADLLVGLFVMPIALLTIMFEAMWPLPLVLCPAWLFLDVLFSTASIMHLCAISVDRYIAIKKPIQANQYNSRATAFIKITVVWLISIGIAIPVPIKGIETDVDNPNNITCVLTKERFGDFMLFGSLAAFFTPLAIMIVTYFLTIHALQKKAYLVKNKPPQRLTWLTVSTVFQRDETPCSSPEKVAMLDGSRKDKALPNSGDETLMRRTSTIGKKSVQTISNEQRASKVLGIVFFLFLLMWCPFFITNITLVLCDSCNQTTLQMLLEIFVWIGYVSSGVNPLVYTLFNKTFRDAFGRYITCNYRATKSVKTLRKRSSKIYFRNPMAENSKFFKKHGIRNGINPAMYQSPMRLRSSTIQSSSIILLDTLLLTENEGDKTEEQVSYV

[9] = biological target: α1A (Homo sapiens, UniProt P35348); assay: cell-based; assay type: cell-based
Chain of α1A (P35348 whole entry): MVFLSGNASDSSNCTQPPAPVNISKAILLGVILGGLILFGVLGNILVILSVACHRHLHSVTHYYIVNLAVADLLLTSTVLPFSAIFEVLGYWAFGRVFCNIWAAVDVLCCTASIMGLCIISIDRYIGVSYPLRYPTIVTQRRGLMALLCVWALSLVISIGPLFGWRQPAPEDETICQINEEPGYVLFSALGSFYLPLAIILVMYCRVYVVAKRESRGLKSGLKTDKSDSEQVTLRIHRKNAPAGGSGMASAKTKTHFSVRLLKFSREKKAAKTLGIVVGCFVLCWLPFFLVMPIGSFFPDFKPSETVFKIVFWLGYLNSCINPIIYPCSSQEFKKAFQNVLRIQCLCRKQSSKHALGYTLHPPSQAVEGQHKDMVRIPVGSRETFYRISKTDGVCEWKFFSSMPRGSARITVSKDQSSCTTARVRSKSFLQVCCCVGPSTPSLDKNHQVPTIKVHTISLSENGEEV

[10] = test system: C57BL/6 mice; assay: Tail suspension test (TST); assay type: in vivo
[11] = biological target: T7, D2 (Homo sapiens, UniProt P14416); assay: cell-based; assay type: cell-based
T7 construct: purchased ICE Bioscience ICESTP™ SafetyOne44 Panel
T7 sequence (P14416 whole entry): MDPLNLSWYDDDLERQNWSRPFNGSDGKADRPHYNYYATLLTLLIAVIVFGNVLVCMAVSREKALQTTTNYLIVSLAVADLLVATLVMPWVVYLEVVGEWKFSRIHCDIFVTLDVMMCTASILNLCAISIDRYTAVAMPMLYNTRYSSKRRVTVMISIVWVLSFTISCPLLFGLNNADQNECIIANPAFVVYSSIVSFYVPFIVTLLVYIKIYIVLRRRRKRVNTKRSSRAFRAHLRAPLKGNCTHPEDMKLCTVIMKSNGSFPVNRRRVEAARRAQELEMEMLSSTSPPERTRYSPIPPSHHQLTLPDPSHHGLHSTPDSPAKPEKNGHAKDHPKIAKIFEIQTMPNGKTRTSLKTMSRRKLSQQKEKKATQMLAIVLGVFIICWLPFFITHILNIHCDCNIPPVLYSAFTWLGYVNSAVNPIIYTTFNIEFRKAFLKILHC

[12] = biological target: T8, δOR (Homo sapiens, UniProt P41143); assay: cell-based; assay type: cell-based
T8 construct: purchased ICE Bioscience ICESTP™ SafetyOne44 Panel
T8 sequence (P41143 whole entry): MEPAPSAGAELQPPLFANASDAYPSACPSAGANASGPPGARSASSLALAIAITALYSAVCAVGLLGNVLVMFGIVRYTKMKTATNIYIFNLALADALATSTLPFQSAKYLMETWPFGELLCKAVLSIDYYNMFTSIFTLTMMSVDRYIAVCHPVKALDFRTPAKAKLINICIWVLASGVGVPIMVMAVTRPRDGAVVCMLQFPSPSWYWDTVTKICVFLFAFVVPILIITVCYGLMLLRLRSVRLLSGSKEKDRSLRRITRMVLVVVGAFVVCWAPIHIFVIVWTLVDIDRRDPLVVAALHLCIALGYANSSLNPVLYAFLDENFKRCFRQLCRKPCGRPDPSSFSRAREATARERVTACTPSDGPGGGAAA

[13] = test system: C57BL/6J mice; assay: m-CPP-induced anxiety model, marble burying test; assay type: in vivo; settings: p.o.
[14] = biological target: T3, TRPC5; assay type: cell-based; settings: 100 nmol/L EA; read-out: IC50, TRPC5, whole-cell patch-clamp
[15] = test system: C57BL/6J mice; assay: m-CPP-induced anxiety model, open field test; assay type: in vivo; settings: 10 mg/kg p.o.
[16] = in vivo; settings: male, C57BL/6, mouse, B/P
[17] = test system: C57BL/6J mice; assay: CCK-4-induced anxiety model, elevated plus maze; assay type: in vivo; settings: CCK-4 model, 10 mg/kg p.o.
[18] = biological target: T9, NET (Homo sapiens, UniProt P23975); assay: SafetyOne44 panel: NET; assay type: cell-based; settings: NET, 10 μmol/L; read-out: Antagonist JDIC-127 @10 μmol/L
T9 construct: ICE Bioscience ICESTP SafetyOne44 Panel
T9 sequence (P23975 whole entry): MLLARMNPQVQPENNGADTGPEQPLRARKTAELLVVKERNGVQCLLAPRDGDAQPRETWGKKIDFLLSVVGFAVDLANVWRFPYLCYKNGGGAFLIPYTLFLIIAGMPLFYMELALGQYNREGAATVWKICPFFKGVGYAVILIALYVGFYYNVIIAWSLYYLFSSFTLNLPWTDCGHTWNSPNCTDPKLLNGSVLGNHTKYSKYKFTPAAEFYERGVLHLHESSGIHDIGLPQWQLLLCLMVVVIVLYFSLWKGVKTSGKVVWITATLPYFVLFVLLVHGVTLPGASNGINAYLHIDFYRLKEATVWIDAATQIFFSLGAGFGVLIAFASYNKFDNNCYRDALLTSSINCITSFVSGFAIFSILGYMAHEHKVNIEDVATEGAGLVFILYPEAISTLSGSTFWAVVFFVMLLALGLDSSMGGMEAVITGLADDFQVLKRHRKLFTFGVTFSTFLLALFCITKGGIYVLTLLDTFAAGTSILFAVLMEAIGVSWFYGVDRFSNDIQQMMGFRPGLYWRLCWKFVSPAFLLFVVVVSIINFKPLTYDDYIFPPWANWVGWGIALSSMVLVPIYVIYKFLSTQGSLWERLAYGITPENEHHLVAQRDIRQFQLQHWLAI

[19] = antagonist mode, 10 μmol/L, read-out: Antagonist JDIC-127 @10 μmol/L

O=c1c2c3nc(n2Cc2ccc(Cl)cc2)Oc2ccc(F)c(c2)OCCCCCCn3c(=O)n1CCCO [JDIC-127]
effect of mutation on inhibitory potency of JDIC-127 [1]: significantly diminished | inhibition at 1 µM [2]: < 20% | inhibition at 10 µM [3]: -31.8% | IC50 [4]: 0.0014 nM | Agonist JDIC-127 @10 μmol/L ([5]; agonist mode): –1.59% | inhibition at 10 µM [5, 19]: -6.7% | inhibition of hERG activity [6]: less than 33% | Agonist JDIC-127 @10 μmol/L ([7]; M2, agonist mode): 2.82% | inhibition at 10 µM ([7]; M2, antagonist mode, 10 μmol/L, read-out: Antagonist JDIC-127 @10 μmol/L): -0.26% | Agonist JDIC-127 @10 μmol/L ([8]; agonist mode): 0.67% | inhibition at 10 µM ([8]; antagonist mode, read-out: Antagonist JDIC-127 @10 μmol/L): -0.45% | Agonist JDIC-127 @10 μmol/L ([9]; agonist mode): 0.76% | inhibition at 10 µM [9, 19]: -3.05% | efficacy in TST relative to reference drugs ([10]; 0.3 mg/kg p.o. vs 10 mg/kg desipramine, 3 mg/kg HC-070): comparable efficacy to desipramine and HC-070 | immobility time in TST ([10]; 0.3 or 3 mg/kg p.o., 60 min prior to testing): significantly reduced | Agonist JDIC-127 @10 μmol/L ([11]; D2, agonist mode): –9.18% | inhibition at 10 µM ([11]; D2, antagonist mode, 10 μmol/L, read-out: Antagonist JDIC-127 @10 μmol/L): -1.55% | Agonist JDIC-127 @10 μmol/L ([12]; agonist mode): 7.81% | inhibition at 10 µM [12, 19]: -21.6% | number of buried marbles, MBT [13]: reduced | IC50 [14]: 0.374 nM | number of entries into the central area, OFT [15]: significantly increased | Kp ([16]; iv, 2 mg/kg, 2 min): 1.1 | Kp ([16]; iv, 2 mg/kg, 45 min): 3.85 | Kp ([16]; iv, 2 mg/kg, 180 min): 7.4 | Kp ([16]; po, 10 mg/kg, 2 min): 3.48 | Kp ([16]; po, 10 mg/kg, 45 min): 2.51 | Kp ([16]; po, 10 mg/kg, 180 min): 0.32 | percentage of entries in the open arms, EPM [17]: significantly increased | inhibition at 10 µM [18]: -5.84%

From PMC12827894, “Structure-guided design of picomolar-level macrocyclic TRPC5 channel inhibitors with antidepressant activity” (Acta Pharmaceutica Sinica. B, 2025)
